Measured values taken from US20140187548A1, “6 SUBSTITUTED IMIDAZOPYRAZINES FOR USE AS MPS-1 AND TKK INHIBITORS IN THE TREATMENT OF HYPERPROLIFERATIVE DISORDERS” (BAYER INTELLECTUAL PROPERTY GMBH, priority 2010, published 2014).

Target: T1, human kinase Mps-1 (Homo sapiens, UniProt P33981)
T1 construct: N-terminally GST-tagged human full length recombinant Mps-1 kinase; GST (N); purchased Invitrogen, Karslruhe, Germany PV4071
T1 sequence (P33981 1-857): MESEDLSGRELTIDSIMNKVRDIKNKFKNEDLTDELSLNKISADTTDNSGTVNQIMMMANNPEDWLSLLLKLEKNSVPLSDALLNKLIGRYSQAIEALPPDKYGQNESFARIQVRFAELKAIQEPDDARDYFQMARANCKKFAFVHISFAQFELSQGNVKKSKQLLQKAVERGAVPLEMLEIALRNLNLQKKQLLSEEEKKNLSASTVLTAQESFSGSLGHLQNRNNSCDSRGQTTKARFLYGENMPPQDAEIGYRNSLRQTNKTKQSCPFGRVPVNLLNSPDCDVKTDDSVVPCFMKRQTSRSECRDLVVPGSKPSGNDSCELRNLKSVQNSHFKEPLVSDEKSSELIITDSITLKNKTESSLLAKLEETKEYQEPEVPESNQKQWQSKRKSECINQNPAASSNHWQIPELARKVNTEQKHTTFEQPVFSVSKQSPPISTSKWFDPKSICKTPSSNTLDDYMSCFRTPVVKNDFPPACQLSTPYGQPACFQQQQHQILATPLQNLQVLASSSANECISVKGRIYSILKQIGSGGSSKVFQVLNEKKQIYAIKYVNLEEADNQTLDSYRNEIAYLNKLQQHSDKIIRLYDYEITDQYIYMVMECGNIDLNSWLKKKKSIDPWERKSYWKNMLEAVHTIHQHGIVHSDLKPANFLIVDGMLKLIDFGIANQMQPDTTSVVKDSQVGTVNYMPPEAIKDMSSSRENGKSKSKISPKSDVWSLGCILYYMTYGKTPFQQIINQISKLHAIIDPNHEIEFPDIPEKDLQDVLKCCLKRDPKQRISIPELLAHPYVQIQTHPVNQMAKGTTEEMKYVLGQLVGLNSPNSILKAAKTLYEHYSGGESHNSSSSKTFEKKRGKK
Experiment: Mps-1 kinase assay (TR-FRET)
Type: biochemical
Settings: N-terminally GST-tagged human full length recombinant Mps-1; 10 μM ATP; 1 μM peptide substrate; 15 min pre-incubation; 60 min at 22° C.
Procedure, shortened: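 TR-FRET read-out: after 1 h binding at 22° C, Eu-labelled anti-phospho-Ser/Thr antibody transfers to SA-XLent on the phosphorylated biotinylated peptide. The enzyme is GST-tagged full-length human Mps-1, typically about 1 nM final, in the linear range.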

Structure (SMILES)	IC50 [nM]
O=C(NC1CC1)c1ccc(-c2cnc3c(NCCCc4ccccc4)nc(-c4ccccc4)cn23)cc1 [Example 2-31, N-cyclopropyl-4-{6-phenyl-8-[(3-phenylpropyl)amino]imidazo[1,2-a]pyrazin-3-yl} benzamide]	34.8
O=C(NC1CC1)c1ccc(-c2cnc3c(NCc4ccc5c(c4)OCO5)nc(-c4ccccc4)cn23)cc1 [Example 2-32, 4-{8-[(1,3-benzodioxol-5-ylmethyl)amino]-6-phenylimidazo[1,2-a]pyrazin-3-yl}-N-cyclopropyl-benzamide]	5.8
COC(=O)CCNc1nc(-c2ccccc2)cn2c(-c3ccc(C(=O)NC4CC4)cc3)cnc12 [Example 2-33, methyl N-{3-[4-(cyclopropylcarbamoyl)phenyl]-6-phenylimidazo[1,2-a]pyrazin-8-yl}-beta-alaninate]	2.3
CN(C)CCNc1nc(-c2ccccc2)cn2c(-c3ccc(C(=O)NC4CC4)cc3)cnc12 [Example 2-34, N-cyclopropyl-4-(8-{[2-(dimethylamino)ethyl]amino}-6-phenylimidazo[1,2-a]pyrazin-3-yl)benzamide]	35.7
N#CCCNc1nc(-c2ccccc2)cn2c(-c3ccc(C(=O)NC4CC4)cc3)cnc12 [Example 2-35, 4-{8-[(2-cyanoethyl)amino]-6-phenylimidazo[1,2-a]pyrazin-3-yl}-N-cyclopropyl-benzamide]	1
O=C(NC1CC1)c1ccc(-c2cnc3c(NCCCN4CCCC4)nc(-c4ccccc4)cn23)cc1 [Example 2-36, N-cyclopropyl-4-(6-phenyl-8-{[3-(pyrrolidin-1-yl)propyl]amino}imidazo[1,2-a]pyrazin-3-yl)benzamide]	28.4
CCN(CC)CCCCNc1nc(-c2ccccc2)cn2c(-c3ccc(C(=O)NC4CC4)cc3)cnc12 [Example 2-37, N-cyclopropyl-4-(8-{[4-(diethylamino)butyl]amino}-6-phenylimidazo[1,2-a]pyrazin-3-yl)benzamide]	14.1
CN(C)CCCCNc1nc(-c2ccccc2)cn2c(-c3ccc(C(=O)NC4CC4)cc3)cnc12 [Example 2-38, N-cyclopropyl-4-(8-{[4-(dimethylamino)butyl]amino}-6-phenylimidazo[1,2-a]pyrazin-3-yl)benzamide]	13.2
O=C(NC1CC1)c1ccc(-c2cnc3c(NCCc4cccs4)nc(-c4ccccc4)cn23)cc1 [Example 2-39, N-cyclopropyl-4-(6-phenyl-8-{[2-(thiophen-2-yl)ethyl]amino}imidazo[1,2-a]pyrazin-3-yl)benzamide]	19.4
O=C(NC1CC1)c1ccc(-c2cnc3c(NCCOc4ccccc4)nc(-c4ccccc4)cn23)cc1 [Example 2-40, N-cyclopropyl-4-{8-[(2-phenoxyethyl)amino]-6-phenylimidazo[1,2-a]pyrazin-3-yl}benzamide]	9.8
O=C(NC1CC1)c1ccc(-c2cnc3c(NCCc4ccncc4)nc(-c4ccccc4)cn23)cc1 [Example 2-41, N-cyclopropyl-4-(6-phenyl-8-{[2-(pyridin-4-yl)ethyl]amino}imidazo[1,2-a]pyrazin-3-yl) benzamide]	5.5
NC(=O)CCNc1nc(-c2ccccc2)cn2c(-c3ccc(C(=O)NC4CC4)cc3)cnc12 [Example 2-42, 4-{8-[(3-amino-3-oxopropyl)amino]-6-phenylimidazo[1,2-a]pyrazin-3-yl}-N-cyclopropyl-benzamide]	5
O=C(NC1CC1)c1ccc(-c2cnc3c(NCCC(F)(F)F)nc(-c4ccccc4)cn23)cc1 [Example 2-43, N-cyclopropyl-4-{6-phenyl-8-[(3,3,3-trifluoropropyl)amino]imidazo[1,2-a]pyrazin-3-yl} benzamide]	1.1
CN(C)c1ccc(CNc2nc(-c3ccccc3)cn3c(-c4ccc(C(=O)NC5CC5)cc4)cnc23)cc1 [Example 2-44, N-cyclopropyl-4-(8-{[4-(dimethylamino)benzyl]amino}-6-phenylimidazo[1,2-a]pyrazin-3-yl)benzamide]	18.1
O=C(NC1CC1)c1ccc(-c2cnc3c(NCCCCN4CCCC4)nc(-c4ccccc4)cn23)cc1 [Example 2-45, N-cyclopropyl-4-(6-phenyl-8-{[4-(pyrrolidin-1-yl)butyl]amino}imidazo[1,2-a]pyrazin-3-yl) benzamide]	11.2
COCCCNc1nc(-c2ccccc2)cn2c(-c3ccc(C(=O)NC4CC4)cc3)cnc12 [Example 2-46, N-cyclopropyl-4-{8-[(3-methoxypropyl)amino]-6-phenylimidazo[1,2-a]pyrazin-3-yl}benzamide]	3.5
O=C(NC1CC1)c1ccc(-c2cnc3c(NCCN4CCNC4=O)nc(-c4ccccc4)cn23)cc1 [Example 2-47, N-cyclopropyl-4-(8-{[2-(2-oxoimidazolidin-1-yl)ethyl]amino}-6-phenylimidazo[1,2-a]pyrazin-3-yl)benzamide]	20
C[S+]([O-])CCNc1nc(-c2ccccc2)cn2c(-c3ccc(C(=O)NC4CC4)cc3)cnc12 (stereo not drawn) [Example 2-48, N-cyclopropyl-4-(8-{[2-(methylsulfinyl)ethyl]amino}-6-phenylimidazo[1,2-a]pyrazin-3-yl)benzamide]	3.4
CNC(=O)CNc1nc(-c2ccccc2)cn2c(-c3ccc(C(=O)NC4CC4)cc3)cnc12 [Example 2-49, N-cyclopropyl-4-(8-{[2-(methylamino)-2-oxoethyl]amino}-6-phenylimidazo[1,2-a]pyrazin-3-yl)benzamide]	32.2
O=C(NC1CC1)c1ccc(-c2cnc3c(NCCc4cccnc4)nc(-c4ccccc4)cn23)cc1 [Example 2-50, N-cyclopropyl-4-(6-phenyl-8-{[2-(pyridin-3-yl)ethyl]amino}imidazo[1,2-a]pyrazin-3-yl) benzamide]	8
O=C(NC1CC1)c1ccc(-c2cnc3c(NCCCC(F)(F)F)nc(-c4ccccc4)cn23)cc1 [Example 2-51, N-cyclopropyl-4-{6-phenyl-8-[(4,4,4-trifluorobutyl)amino]imidazo[1,2-a]pyrazin-3-yl}benzamide]	2.4
O=C(NC1CC1)c1ccc(-c2cnc3c(NCC(F)F)nc(-c4ccccc4)cn23)cc1 [Example 2-52, N-cyclopropyl-4-{8-[(2,2-difluoroethyl)amino]-6-phenylimidazo[1,2-a]pyrazin-3-yl}benzamide]	3.1
Cn1ccc(CNc2nc(-c3ccccc3)cn3c(-c4ccc(C(=O)NC5CC5)cc4)cnc23)n1 [Example 2-53, N-cyclopropyl-4-(8-{[(1-methyl-1H-pyrazol-3-yl)methyl]amino}-6-phenylimidazo [1,2-a]pyrazin-3-yl)benzamide]	5.6
Cn1nccc1CNc1nc(-c2ccccc2)cn2c(-c3ccc(C(=O)NC4CC4)cc3)cnc12 [Example 2-54, N-cyclopropyl-4-(8-{[(1-methyl-1H-pyrazol-5-yl)methyl]amino}-6-phenylimidazo[1,2-a]pyrazin-3-yl)benzamide]	1.5
O=C(NC1CC1)c1ccc(-c2cnc3c(NCc4cc[nH]n4)nc(-c4ccccc4)cn23)cc1 [Example 2-55, N-cyclopropyl-4-{6-phenyl-8-[(1H-pyrazol-3-ylmethyl)amino]imidazo[1,2-a]pyrazin-3-yl} benzamide]	2.7
Cn1cc(CNc2nc(-c3ccccc3)cn3c(-c4ccc(C(=O)NC5CC5)cc4)cnc23)cn1 [Example 2-56, N-cyclopropyl-4-(8-{[(1-methyl-1H-pyrazol-4-yl)methyl]amino}-6-phenylimidazo[1,2-a]pyrazin-3-yl)benzamide]	1.3
CCOC(C)CNc1nc(-c2ccccc2)cn2c(-c3ccc(C(=O)NC4CC4)cc3)cnc12 (stereo not drawn) [Example 2-57, N-cyclopropyl-4-{8-[(2-ethoxypropyl)amino]-6-phenylimidazo[1,2-a]pyrazin-3-yl}benzamide]	2.3
CCC(CNc1nc(-c2ccccc2)cn2c(-c3ccc(C(=O)NC4CC4)cc3)cnc12)OC (stereo not drawn) [Example 2-58, N-cyclopropyl-4-{8-[(2-methoxybutyl)amino]-6-phenylimidazo[1,2-a]pyrazin-3-yl}benzamide]	2.9
O=C(NC1CC1)c1ccc(-c2cnc3c(NCc4sccc4Cl)nc(-c4ccccc4)cn23)cc1 [Example 2-59, 4-(8-{[(3-chlorothiophen-2-yl)methyl]amino}-6-phenylimidazo [1,2-a]pyrazin-3-yl)-N-cyclopropylbenzamide]	6.4
O=C(NC1CC1)c1ccc(-c2cnc3c(NCc4ccc(Cl)s4)nc(-c4ccccc4)cn23)cc1 [Example 2-60, 4-(8-{[(5-chlorothiophen-2-yl)methyl]amino}-6-phenylimidazo [1,2-a]pyrazin-3-yl)-N-cyclopropylbenzamide]	4.9
